Assays:
[1] = system: MGLL; assay: Expression of MGLL in rat sebaceous gland (epidermal split) after topical PPARgamma agonist treatment, real-time PCR; format: in vivo; conditions: female FUZZY rats, topical 1% in acetone, standardized to 18S, versus carrier group
Source text: • Strain: Ico:Hsd:FUZZY-fz • Gender: female • Age: 10 weeks Number per batch: 40 (8 animals per group) Treatment: Route of administration: topical • Compound/batch: PPARgamma agonists: • A: 5-{4-[2-(methylpyridin-2-ylamino)ethoxy]-benzyl}thiazolidine-2,4-dione • B: (2-methoxyethoxymethoxy)naphthalene-2-carboxylic acid [4′-(2,4-dioxothiazolidin-5-ylmethyl)biphenyl-3-ylmethyl]methylamide or rosiglitazone • C: (S)-2-ethoxy-3-{4-[6-(3-heptyl-1-methyl-ureido)pyridin-2-yl)phenyl}propionic acid • Doses: 1% • Carrier: acetone (001) • Duration 96 hours Method of evaluation: The animals are weighed at the beginning and at the end of the study. Skin biopsies are taken (6 samples of skin excised per rat) in order to analyse the expression of the genes (RNA extraction, reverse transcriptase and real-time PCR). The samples are stored overnight at 4° C. before incubation in 1M sodium bromide (NaBr) for 2 hours at 37° C. After incubation, the samples are separated into epidermis or dermis. The epidermal samples are stored at 20° C. […] PCRs are carried out, beginning with the cDNAs originating from the epidermal splits containing sebaceous glands from control rats or rats treated with a PPARγ agonist: the mRNA is extracted using a column and quantified. The quality of the mRNAs is measured and is represented by the 18S/28S ratio. The results are standardized with respect to 18S, expressed as relative induction versus untreated animals (carrier group). The statistical analysis is obtained using internal software based on a modified Monte Carlo statistical analysis.

[2] = system: Monoglyceride lipase (MGLL); assay: Expression of MGLL in Fuzzy rat epidermal split after topical treatment (Affymetrix transcriptome analysis); format: in vivo; conditions: female FUZZY rats, topical 1% once a day for 8 days, Affymetrix 1388644_at, control condition 214
Protocol: The studies are carried out in female Fuzzy rats (Hsd: Fuzzy-fz) ten weeks old at the beginning of the study. The animals are treated at a dose of 1% (PPARg agonist rosiglitazone in solution in acetone) once a day for 8 days. Two hours after the final treatment, the animals are sacrificed by euthanasia and the skin on the back is removed. After incubation in dispase, the epidermis carrying the sebaceous glands is detached from the dermis (epidermal split). After grinding of the samples, the mRNA is prepared using Qiagen columns, in accordance with the supplier's instructions. The material thus prepared is subjected to large-scale transcriptome analysis on an Affymetrix platform. The data are subsequently standardized and, after statistical analysis, the results produced are expressed in arbitrary expression units (see below) accompanied, for each piece of data, by a statistical value for presence of the transcript (presence=1; absence=0).

CN(CCOc1ccc(CC2SC(=O)NC2=O)cc1)c1ccccn1 (stereo not shown) [A, 5-{4-[2-(methylpyridin-2-ylamino)ethoxy]-benzyl}thiazolidine-2,4-dione]
MGLL relative induction, 0 hours [1]: 1 | MGLL relative induction, 8 hours [1]: 2.37 | MGLL relative induction, 24 hours [1]: 5.06 | MGLL relative induction, 48 hours [1]: 3.13 | MGLL relative induction, 96 hours [1]: 5.76

CCCCCCCNC(=O)N(C)c1cccc(-c2ccc(C[C@H](OCC)C(=O)O)cc2)n1 [C, (S)-2-ethoxy-3-{4-[6-(3-heptyl-1-methyl-ureido)pyridin-2-yl)phenyl}propionic acid]
MGLL relative induction, 0 hours [1]: 1 | MGLL relative induction, 8 hours [1]: 5.01 | MGLL relative induction, 24 hours [1]: 3.90 | MGLL relative induction, 48 hours [1]: 3.88 | MGLL relative induction, 96 hours [1]: 3.86

CN(CCOc1ccc(CC2SC(=O)NC2=O)cc1)c1ccccn1 (stereo not shown) [rosiglitazone]
Expression after treatment with 1% rosiglitazone [2]: 576 arbitrary expression units

(2-methoxyethoxymethoxy)naphthalene-2-carboxylic acid [4′-(2,4-dioxothiazolidin-5-ylmethyl)biphenyl-3-ylmethyl]methylamide
MGLL relative induction, 0 hours [1]: 1 | MGLL relative induction, 8 hours [1]: 1.17 | MGLL relative induction, 24 hours [1]: 2.21 | MGLL relative induction, 48 hours [1]: 3.12 | MGLL relative induction, 96 hours [1]: 1.61
